From the NIST ThermoML archive (doi:10.1021/je060271a)
± gives the expanded uncertainty stated by the source.

Conditions: 343.14 K, Liquid, Vibrating tube method

CCCC(=O)OCC(COC(=O)CCC)(COC(=O)CCC)COC(=O)CCC [pentaerythritol tetrabutyrate]
Conditions	mass density [kg/m3]
773.4 kPa	1008.6 ± 1.2
794.9 kPa	1008.7 ± 1.2
818 kPa	1008.6 ± 1.2
837.8 kPa	1008.5 ± 1.2
863.2 kPa	1008.6 ± 1.2
890.1 kPa	1008.8 ± 1.2
913.7 kPa	1008.7 ± 1.2
943.4 kPa	1008.7 ± 1.2
969.3 kPa	1008.9 ± 1.2
1002.1 kPa	1008.8 ± 1.2
1036.5 kPa	1008.8 ± 1.2
1072.5 kPa	1008.9 ± 1.2
1104.2 kPa	1008.8 ± 1.2
1144 kPa	1008.9 ± 1.2
1187.1 kPa	1008.9 ± 1.2
1225.3 kPa	1009 ± 1.2
1274.2 kPa	1009 ± 1.2
1324.7 kPa	1009 ± 1.2
1369.5 kPa	1009.1 ± 1.2
1428.4 kPa	1009.2 ± 1.2
1489.8 kPa	1009.2 ± 1.2
1539.7 kPa	1009.3 ± 1.2
1615.7 kPa	1009.3 ± 1.2
1656.6 kPa	1009.4 ± 1.2
1676.8 kPa	1009.3 ± 1.2
1697.6 kPa	1009.4 ± 1.2
1715.3 kPa	1009.4 ± 1.2
1736.3 kPa	1009.5 ± 1.2
1758.3 kPa	1009.4 ± 1.2
1780.4 kPa	1009.4 ± 1.2
1799.6 kPa	1009.4 ± 1.2
1823.1 kPa	1009.5 ± 1.2
1842.9 kPa	1009.5 ± 1.2
1866.6 kPa	1009.7 ± 1.2
1891.8 kPa	1009.5 ± 1.2
1912.6 kPa	1009.6 ± 1.2
1937.9 kPa	1009.6 ± 1.2
1964.7 kPa	1009.5 ± 1.2
1987.2 kPa	1009.6 ± 1.2
2014.1 kPa	1009.7 ± 1.2
2042.2 kPa	1009.7 ± 1.2
2065.8 kPa	1009.6 ± 1.2
2094.8 kPa	1009.6 ± 1.2
2125.5 kPa	1009.8 ± 1.2
2150.1 kPa	1009.9 ± 1.2
2180.8 kPa	1009.8 ± 1.2
2213.3 kPa	1009.7 ± 1.2
2247.3 kPa	1009.8 ± 1.2
2275.2 kPa	1009.8 ± 1.2
2308 kPa	1009.8 ± 1.2
2336.8 kPa	1009.9 ± 1.2
2371.5 kPa	1009.8 ± 1.2
2407 kPa	1009.9 ± 1.2
2443.3 kPa	1009.9 ± 1.2
2474.7 kPa	1010 ± 1.2
2513.3 kPa	1010.1 ± 1.2
2553.2 kPa	1010 ± 1.2
2587.6 kPa	1010.1 ± 1.2
2629.4 kPa	1010 ± 1.2
2672.7 kPa	1009.9 ± 1.2
2711.2 kPa	1010.3 ± 1.2
2794.1 kPa	1010.3 ± 1.2
2887.4 kPa	1010.4 ± 1.2
2936.4 kPa	1010.4 ± 1.2
2979.8 kPa	1010.4 ± 1.2
3032.3 kPa	1010.4 ± 1.2
3076.5 kPa	1010.5 ± 1.2
3130.6 kPa	1010.4 ± 1.2
3186.2 kPa	1010.6 ± 1.2
3242.9 kPa	1010.6 ± 1.2
3291.4 kPa	1010.7 ± 1.2
3352.4 kPa	1010.6 ± 1.2
3413.6 kPa	1010.6 ± 1.2
3465.5 kPa	1010.7 ± 1.2
3526.7 kPa	1010.8 ± 1.2
3578 kPa	1010.8 ± 1.2
3651.6 kPa	1011 ± 1.2
3705.3 kPa	1011 ± 1.2
3789.3 kPa	1010.9 ± 1.2
3822.9 kPa	1011.1 ± 1.2
3911.1 kPa	1011.1 ± 1.2
3990.2 kPa	1011.2 ± 1.2
4072.1 kPa	1011.2 ± 1.2
4144 kPa	1011.3 ± 1.2
4183.8 kPa	1011.4 ± 1.2
4214.1 kPa	1011.4 ± 1.2
4417.6 kPa	1011.4 ± 1.2
4449.7 kPa	1011.6 ± 1.2
4486.8 kPa	1011.6 ± 1.2
4507.9 kPa	1011.5 ± 1.2
4727.5 kPa	1011.7 ± 1.2
5057.9 kPa	1012.1 ± 1.2
5072.9 kPa	1012.3 ± 1.2
5076 kPa	1012 ± 1.2
5110.6 kPa	1012.1 ± 1.2
5117 kPa	1012.1 ± 1.2
5126.9 kPa	1012.1 ± 1.2
5150.9 kPa	1012.2 ± 1.2
5159.4 kPa	1012.3 ± 1.2
5175.5 kPa	1012.1 ± 1.2
5176 kPa	1012.2 ± 1.2
5178.4 kPa	1012.2 ± 1.2
5180.5 kPa	1012.1 ± 1.2
5180.7 kPa	1012 ± 1.2
5182.4 kPa	1012.2 ± 1.2
5183.8 kPa	1012.3 ± 1.2
5184.3 kPa	1012.1 ± 1.2
5185 kPa	1012.1 ± 1.2
5185.2 kPa	1012.1 ± 1.2
5185.5 kPa	1012.2 ± 1.2
5186.2 kPa	1012.2 ± 1.2
5187.3 kPa	1012.1 ± 1.2
5188.5 kPa	1012.1 ± 1.2
5189 kPa	1012.2 ± 1.2
5189.9 kPa	1012.3 ± 1.2
5190.4 kPa	1012.1 ± 1.2
5205.3 kPa	1012.2 ± 1.2
5219.3 kPa	1012.2 ± 1.2
5228.9 kPa	1012.3 ± 1.2
5236 kPa	1012.2 ± 1.2
5238.3 kPa	1012.3 ± 1.2
5248 kPa	1012.2 ± 1.2
5250.1 kPa	1012.2 ± 1.2
5252.5 kPa	1012.2 ± 1.2
5253.9 kPa	1012.3 ± 1.2
5256.1 kPa	1012.2 ± 1.2
5266.1 kPa	1012.1 ± 1.2
5282.2 kPa	1012.2 ± 1.2
5294.5 kPa	1012.3 ± 1.2
5310.3 kPa	1012.2 ± 1.2
5338.3 kPa	1012.2 ± 1.2
5338.4 kPa	1012.1 ± 1.2
5368.9 kPa	1012.1 ± 1.2
5399.8 kPa	1012.4 ± 1.2
5401.2 kPa	1012.4 ± 1.2
5439.1 kPa	1012.3 ± 1.2
5471.1 kPa	1012.4 ± 1.2
5509.5 kPa	1012.4 ± 1.2
5540.4 kPa	1012.4 ± 1.2
5575.9 kPa	1012.5 ± 1.2
5603.9 kPa	1012.4 ± 1.2
5635.2 kPa	1012.6 ± 1.2
5666.5 kPa	1012.5 ± 1.2
5693.6 kPa	1012.5 ± 1.2
5727 kPa	1012.6 ± 1.2
5754.8 kPa	1012.6 ± 1.2
5789.8 kPa	1012.7 ± 1.2
5820.2 kPa	1012.7 ± 1.2
5848.2 kPa	1012.7 ± 1.2
5882.8 kPa	1012.5 ± 1.2
5917.3 kPa	1012.8 ± 1.2
5983 kPa	1012.8 ± 1.2
6117.5 kPa	1013 ± 1.2
6146.4 kPa	1012.8 ± 1.2
6179.9 kPa	1012.9 ± 1.2
6208.2 kPa	1012.9 ± 1.2
6243.3 kPa	1013 ± 1.2
6271.8 kPa	1012.9 ± 1.2
6306.4 kPa	1012.9 ± 1.2
6341.3 kPa	1013 ± 1.2
6370.3 kPa	1013.1 ± 1.2
6406.6 kPa	1013 ± 1.2
6437.2 kPa	1013.1 ± 1.2
6473.6 kPa	1013.1 ± 1.2
6511 kPa	1013.2 ± 1.2
6542.8 kPa	1013.3 ± 1.2
6581.3 kPa	1013.2 ± 1.2
6611.2 kPa	1013.2 ± 1.2
6645.7 kPa	1013.4 ± 1.2
6673.9 kPa	1013.3 ± 1.2
6707.9 kPa	1013.3 ± 1.2
6736.2 kPa	1013.4 ± 1.2
6771.5 kPa	1013.3 ± 1.2
6800.7 kPa	1013.3 ± 1.2
6836.3 kPa	1013.4 ± 1.2
6866 kPa	1013.4 ± 1.2
6902.9 kPa	1013.4 ± 1.2
6934 kPa	1013.6 ± 1.2
6971 kPa	1013.5 ± 1.2
7008.4 kPa	1013.5 ± 1.2
7168 kPa	1013.6 ± 1.2
7200.4 kPa	1013.7 ± 1.2
7227.9 kPa	1013.7 ± 1.2
7261.2 kPa	1013.7 ± 1.2
7289.3 kPa	1013.8 ± 1.2
7323.9 kPa	1013.9 ± 1.2
7352.7 kPa	1013.8 ± 1.2
7387.4 kPa	1014 ± 1.2
7416.1 kPa	1013.9 ± 1.2
7450.6 kPa	1013.8 ± 1.2
7480.1 kPa	1014 ± 1.2
7515.7 kPa	1014 ± 1.2
7551.4 kPa	1013.9 ± 1.2
7581.6 kPa	1013.9 ± 1.2
7618.5 kPa	1014 ± 1.2
7649.6 kPa	1014 ± 1.2
7686.9 kPa	1014 ± 1.2
7718.3 kPa	1014.2 ± 1.2
7756.1 kPa	1014.1 ± 1.2
7788.3 kPa	1014.2 ± 1.2
7827 kPa	1014.2 ± 1.2
7866.3 kPa	1014.2 ± 1.2
7899.3 kPa	1014.2 ± 1.2
7932.8 kPa	1014.4 ± 1.2
7972.8 kPa	1014.4 ± 1.2
8013.9 kPa	1014.3 ± 1.2
8090.3 kPa	1014.4 ± 1.2
8125.6 kPa	1014.5 ± 1.2
8169.1 kPa	1014.4 ± 1.2
8205.4 kPa	1014.5 ± 1.2
8246 kPa	1014.4 ± 1.2
8283.5 kPa	1014.5 ± 1.2
8312 kPa	1014.5 ± 1.2
8346.8 kPa	1014.6 ± 1.2
8382.7 kPa	1014.7 ± 1.2
8723.4 kPa	1014.9 ± 1.2
8760.5 kPa	1014.7 ± 1.2
8798.7 kPa	1014.8 ± 1.2
8838.7 kPa	1014.9 ± 1.2
8871 kPa	1015 ± 1.2
8910.3 kPa	1015.2 ± 1.2
8943.4 kPa	1015 ± 1.2
9220.4 kPa	1015.3 ± 1.2
9262.8 kPa	1015.3 ± 1.2
9305.7 kPa	1015.3 ± 1.2
9342.7 kPa	1015.3 ± 1.2
9387.2 kPa	1015.4 ± 1.2
9430.1 kPa	1015.4 ± 1.2
9462.8 kPa	1015.5 ± 1.2
9499 kPa	1015.3 ± 1.2
9535.2 kPa	1015.5 ± 1.2
9572.1 kPa	1015.6 ± 1.2
9751.4 kPa	1015.7 ± 1.2
9783.6 kPa	1015.7 ± 1.2
10212 kPa	1016 ± 1.2
10254 kPa	1016.1 ± 1.2
10297 kPa	1016.1 ± 1.2
10334 kPa	1015.9 ± 1.2
10376 kPa	1016 ± 1.2
10420 kPa	1016.1 ± 1.2
10456 kPa	1016.3 ± 1.2
10500 kPa	1016.3 ± 1.2
10816 kPa	1016.5 ± 1.2
10866 kPa	1016.5 ± 1.2
10904 kPa	1016.5 ± 1.2
11274 kPa	1016.8 ± 1.2
11884 kPa	1017.2 ± 1.2
11921 kPa	1017.2 ± 1.2
11965 kPa	1017.2 ± 1.2
12003 kPa	1017.3 ± 1.2
12047 kPa	1017.3 ± 1.2
12093 kPa	1017.5 ± 1.2
12139 kPa	1017.3 ± 1.2
12178 kPa	1017.4 ± 1.2
12224 kPa	1017.5 ± 1.2
12271 kPa	1017.5 ± 1.2
12318 kPa	1017.5 ± 1.2
14882 kPa	1019.5 ± 1.2
14925 kPa	1019.6 ± 1.2
14968 kPa	1019.5 ± 1.2
15004 kPa	1019.4 ± 1.2
15048 kPa	1019.5 ± 1.2
15500 kPa	1019.8 ± 1.2
15576 kPa	1019.8 ± 1.2
17833 kPa	1021.6 ± 1.2
19181 kPa	1022.6 ± 1.2
19261 kPa	1022.5 ± 1.2
22923 kPa	1025 ± 1.2
23811 kPa	1025.7 ± 1.2
23859 kPa	1025.7 ± 1.2
23900 kPa	1025.7 ± 1.2
23948 kPa	1025.8 ± 1.2
23996 kPa	1025.8 ± 1.2
24046 kPa	1025.8 ± 1.2
25712 kPa	1027 ± 1.2
25761 kPa	1026.9 ± 1.2
25802 kPa	1027 ± 1.2
25851 kPa	1027.1 ± 1.2
25900 kPa	1027.1 ± 1.2
25940 kPa	1027.1 ± 1.2
25989 kPa	1027.1 ± 1.2
26037 kPa	1027.1 ± 1.2
26087 kPa	1027.3 ± 1.2
26128 kPa	1027.2 ± 1.2
26178 kPa	1027.4 ± 1.2
26627 kPa	1027.5 ± 1.2
26673 kPa	1027.6 ± 1.2
26708 kPa	1027.6 ± 1.2
26751 kPa	1027.6 ± 1.2
26793 kPa	1027.7 ± 1.2
26835 kPa	1027.8 ± 1.2
26872 kPa	1027.7 ± 1.2
26914 kPa	1027.8 ± 1.2
